Values quoted from earlier work as cited in patent publication US6479068B1, “Therapeutic nutrient regimen for alleviating mucositis, stomatitis and cachexia in oncology patients” (Baxter International Inc., priority 2000, dated 2002).

Conditions: in vivo

Question: With [Se] [Selenium, selenium] as the compound, how does the absorption read?
Answer: 50-100%
